Reference: PubChem BioAssay AID179 (DTP/NCI, 2004)
Values joined by “and” are separate entries in the source; they are usually repeats but may differ in a detail not shown here. Identical values can stand only once. Active and inactive are the calls of the source.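 The calls were made as follows: active = compounds giving half or more protection of infected cells from virus-caused growth loss, again on retest; inactive = the rest.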

Test system: CEM cells HIV-1 protection, formazan growth assay
Experiment: NCI AIDS Antiviral Assay
Conditions: for IC50: measured here: growth of uninfected CEM cells
Outline: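 Protection of CEM cells against HIV-1 was scored from cell growth (soluble formazan) across five concentrations, with parallel uninfected cells. Lack of protection may reflect toxicity.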

SMILES	EC50 [µM]	IC50	outcome
CC(=O)COP(=O)(OCC(C)=O)OCC1OC(n2cc(C)c(=O)[nH]c2=O)CC1N=[N+]=[N-] (stereo unspecified)	0.000631	2 µM	
CCOc1ccc(C(=O)Nc2ccc(C3=NCCN3)cc2)cc1C(=O)Nc1ccc(C2=NCCN2)cc1	2.95	117 µM	
O=C1SC(c2ccc(Cl)cc2)(c2ccc(Cl)cc2)c2ccccc21	> 200	93.3 µM	
Cc1cccc(C(C)(C)C)c1NC(=O)CCc1n[nH]c(=S)o1	> 776	692 µM	
C=C1C2CCC3(CCC4C5(C)CCCC4(CN(CCO)C5)C3C2)C1O (stereo unspecified)			inactive
Cc1cc(N(CCC#N)CCC#N)ccc1/C=N/NC(=O)c1cc(Cl)ccc1O	> 200	> 200 µM	
CCC1(CC)C(=O)NC(=S)N=C1N			inactive
COc1cccc(/C=C/C(=O)C(C)(C)C)c1	> 24	> 24 µM	
Cc1ccc(C2C(Cl)C(=O)N2n2cnc3ccccc3c2=O)cc1 (stereo unspecified)	> 39.8	> 39.8 µM	
CCOC(=O)C1SC(=Nc2ccc(OC)c(OC)c2)N=C1C (stereo unspecified)	> 22.4	> 22.4 µM	
CCOC(=O)/C=C1\SC12C(C)(C)CCCC2(C)C	> 200	61.7 µM	
CC(C)(C)NNC(=O)/C(=C/c1ccc([N+](=O)[O-])cc1)NC(=O)c1ccccc1	> 7.08	> 7.08 µM	
CCC[CH2][Sn]1([CH2]CCC)[O]C(=O)c2ccc(N)cc2[O]1			inactive
CC1=C2CC/C(C)=C/CCC3(C)OC3CC/C(C)=C/C2OC1=O (stereo unspecified)	> 200	> 200 µM	
CC(=O)Oc1c2c(c(OC(C)=O)c3c1C(=O)c1ccccc1C3=O)CCC([C@H](C)O)=C2			inactive
CC(C)[Si](CC1=CCCCC12C(=O)N(COCC[Si](C)(C)C)c1ccccc12)(C(C)C)C(C)C (stereo unspecified)	> 200	> 200 µM	
CCN(CC)CCOC(=O)c1cc2ccccc2n1-c1ccccc1	> 200	79.4 µM	
COc1cccc(C=C2C(=O)OC(C)(C)OC2=O)c1			inactive
CNC(=S)N(C)C(=S)Nn1c(=O)c(C)nn(C)c1=S	18.6	> 200 µM	
c1csc(-c2ccc(-c3ccc(-c4ccc(-c5cccs5)s4)s3)s2)c1	> 200	> 200 µM	
CC1=NN(c2ccccc2)C(=O)C1N=Nc1ccc(S(=O)(=O)Nc2cc(C)nc(C)n2)cc1 (stereo unspecified)			inactive
Cn1[nH]c2[nH]c(=S)sc(=S)c2c1=O	> 200	> 200 µM	

SMILES	EC50 [µM]	IC50	outcome
Cc1ccc(NC(=O)/C(Cc2cc(=O)oc3cc(O)ccc23)=N\NC(C)(C)C)cc1C	> 17	> 17 µM	
CC(O)c1c2c(cc3c1CC1(C3)Cc3cc4c(c(C(C)O)c3C1)CCC4)CCC2 (stereo unspecified)	> 200	9.55 µM	
COC(=O)c1nc2c(C)c(O)c(Oc3c(C)c(O)c(O)c([C@H](C)CCC=C(C)C)c3O)c([C@H](C)CCC=C(C)C)c2o1	> 200	7.94 µM	
CCCCCCCCCCNCCSSCc1ccc(Cl)cc1			inactive
CO/C(=N\N=Cc1ccccc1)c1ccncc1	15.1	166 µM	
COc1cccc2c1cc([N+](=O)[O-])c1c(C(=O)O)cc3c(c12)OCO3	> 200	19.1 µM	
Cc1ccc(NP2(=O)N(Cc3ccc(Cl)cc3)CCCN2Cc2ccc(Cl)cc2)cc1	> 200	11 µM	
Cc1c([N+](=O)[O-])c(=O)oc2c(C)c3occc(=O)c3cc12	> 6.92	> 6.92 µM	
O=C(/C=C\c1cccc(C(F)(F)F)c1)c1ccccc1			inactive
COC(=O)c1c(C)cccc1/C=C1/Cc2c(C)cccc2C1=O	> 200	> 200 µM	
S=C1OC2CCCC[C@H]2O1 (stereo partly specified)	> 120	> 120 µM	
Cc1c(-c2nnc(-c3ccccc3)o2)c(=O)n(-c2ccccc2)n1C	> 200	> 200 µM	
O=C(NCc1ccc2ccc3cccnc3c2n1)c1ccc[n+](Cc2ccccc2)c1	> 513	24.5 µM	
CC1=CC2C(O)(CC(CO)=CC3C4C(C)(C)C4(O)C(O)C(C)C32O)C1=O (stereo unspecified)			inactive
O=C(CNC(=O)OCc1ccccc1)NCCCCC(NC(=O)OCc1ccccc1)C(=O)NC(CCCCNC(=O)CNC(=O)OCc1ccccc1)C(=O)OCc1ccccc1 (stereo unspecified)	> 100	> 100 µM	
COc1nc(N=P(c2ccccc2)(c2ccccc2)c2ccccc2)cc(=O)[nH]1			inactive
Cc1cc(NS(=O)(=O)c2ccc(Nc3c4ccccc4nc4c(C(=O)NCCN(C)C)ccc(Cl)c34)cc2)no1			inactive
COc1ccc2nc(NC(=O)C(=O)CC(=O)c3ccc(Cl)cc3)sc2c1			inactive
CCOC(=O)N1CC2OC(n3cc(C)c(=O)[nH]c3=O)CC2O1 (stereo unspecified)	> 200	> 200 µM	
COc1cc(-c2ccc(NC(=O)SCCC(=O)O)cc2OC)ccc1NC(=O)SCCC(=O)O			inactive
NCCC1C2CC3CC(C2)CC1C3 (stereo unspecified)			inactive
C[C@H]1[C@H](N2CCCC2)O[Si](C(C)(C)C)(C(C)(C)C)[C@@H]1C	> 200	> 200 µM	

SMILES	EC50 [µM]	IC50	outcome
CC1SCc2nc3ccccc3n21 (stereo unspecified)	> 200	> 200 µM	
CO[C@@H]1C2=CC=CC=C[C@H]2n2c(=O)n(-c3ccccc3)c(=O)n21	> 162	81.3 µM	
Cc1cc(Cl)ccc1N=C1NC(=O)C(CC(=O)Nc2cccc(C)c2C)S1 (stereo unspecified)	> 234	66.1 µM	
S=C(S)N1CCN(c2cccc(Cl)c2)CC1	> 200	182 µM	
COc1cc2ccnc3c2c(c1O)-c1ccccc1C3=O			inactive
O=C1C=C(N2CCCC2)c2cc(N3CCCC3)ncc2C1=O			inactive
C=CC(C)(C)[C@@]12CC3C(=O)N[C@@H](Cc4ccccc4)C(=O)N3[C@@H]1N(C(C)=O)c1ccccc12 (stereo partly specified)	> 81.3	70.8 µM	
CC(=O)NC1C(OCC(=O)NC(C)C(=O)NC(CCC(=O)NCCCCCNc2ccc([N+](=O)[O-])c3[nH]c4ccccc4c(=O)c23)C(N)=O)C(O)C(CO)OC1(C)OCc1ccccc1 (stereo unspecified)	> 100	3.39 µM	
O=C(C=Nc1ccccc1C(=O)[O-])c1ccco1.O=C(C=Nc1ccccc1C(=O)[O-])c1ccco1.[Cu+2]	> 1.91	> 1.91 µM	
O=C(N/N=C1/C(=O)N(c2ccc(Cl)cc2Cl)C(=O)C(=O)C1c1nc2ccccc2o1)c1ccccc1O (stereo unspecified)			inactive
Clc1ccc(C=Nc2ccc(SSc3ccc(N=Cc4ccc(Cl)cc4)cc3)cc2)cc1	> 200	22.4 µM	
COc1ccc2c(c1)CCc1c-2[nH]c2ccc(OC)cc12	> 200	> 200 µM	
O=[N+]([O-])/C=C/c1cn(CCCCCCCCn2cc(/C=C/[N+](=O)[O-])c3ccccc32)c2ccccc12	> 200	35.5 µM	
O=c1c(Cc2ccccc2)c(O)cc2n1CCC2	> 148	> 148 µM	
O=C(O)/C=C\SCCCC(=O)O	> 1320	> 1320 µM and 1100 µM	
Cc1ncc([N+](=O)[O-])n1CCNS(=O)(=O)CCCn1ncnc1[N+](=O)[O-]	> 200	> 200 µM	
O=C1NC(=O)C(c2ccccc2)O1 (stereo unspecified)	> 1410	447 µM	
CN1CC=C(c2c(N)nc(N)[nH]c2=O)CC1	> 200	> 200 µM	
COc1ccccc1-c1cc(B(O)O)ccc1OC	> 200	40.7 µM	
COCCN(C(=O)c1ccccc1)C1CCC2(SCCS2)c2[nH]c3ccccc3c21 (stereo unspecified)	> 200	24 µM	
